Data on four molecules can be found in article PMC10609873, “Antidiabetic, Antihyperlipidemic, and Antioxidant Evaluation of Phytosteroids from Notholirion thomsonianum (Royle) Stapf” (Plants, 2023).

For data set [1], the system named is alloxan-induced diabetic rats. Kind of data set: renal and liver function tests (biochemical profile of blood). The following applies: NtSt01 1.0 mg/kg, standard glibenclamide; for S.Creatinine: reference range 0.4–0.8; for SGPT(ALT): reference range 17–30; for S.ALK.Phosphatase: reference range 30–130; for S.bilurubin: reference range up to 1.0.
Procedure: Renal functions tests were performed to determine blood urea and serum creatinine [38]. To determine blood urea, enzyme reagent 1 (1000 µL) and 10 µL of serum were mixed together and incubated for 5 min at 25 °C, followed by the addition of 1000 µL of reagent 2 to the mixture. After 5 min, the absorbance was recorded at 578 nm.
Serum glutamate pyruvate transaminase (SGPT/ALT), alkaline phosphatase (ALP), and bilirubin tests were performed following standard protocols using micro lab 300 and tecno plus biochemistry analyzers [39]. To perform the SGPT/ALT test, 50 µL of serum sample was added to 500 µL of reagent (400 µL of reagent 1 and 100 µL of reagent 2). […] To determine ALP, a kit was used following the manufacturer’s specifications: 10 µL of serum sample was added to 500 µL of reagent (400 µL of reagent 1 and 100 µL of reagent 2). […] Similarly, the concentration of bilirubin was evaluated using standard protocols. Four types of reagents, R1, R2, R3, and R4, were used in this test. R2 (25 µL) was added to R1 (100 µL). After this, 100 µL of serum sample and 500 µL of R3 were added and allowed to stand at 25 °C for 5 min. Then, 500 µL of R4 was added; at 25 °C for 5 min, the mixture was incubated. The absorbance of the sample was recorded at 546 nm.
Data set [2] concerns alloxan-induced diabetic rats. As to the kind of experiment: vital organ weights of fasting rats after treatment. The note with it: after the 28-day experiment; NtSt01 1.0 mg/kg, glibenclamide 0.5 mg/kg. The class given is in vivo. From the text:
The experimental rats were purchased from the Breeding House of National Institute Health, Islamabad, Pakistan. The average weights of these rats ranged from 220 to 250 g. The animals were handled as per the guidelines of the University of […] animals By-Laws 2008 (Scientific Procedure Issue I) under the approval of the ethical committee via letter No. DREC-140/B. The food, water, and light/dark cycles provided to animals were observed by the ethical committee. The animals were euthanized as per the AVMA guidelines version 2020. The animals were subjected to slow exposure of halothane vapors to induce anesthesia. There was a gradual increase in the dosage of halothane vapors, which eventually euthanized the animals. […] Group 3: […] Group 4: […]

Data set [3] concerns alloxan-induced diabetic rats. Kind of data set: body weight of fasting rats during treatment. It is filed as in vivo. The note with it: NtSt01 1.0 mg/kg, glibenclamide 0.5 mg/kg. The protocol:
Group 3: This group was the alloxan-induced diabetic group, which was treated with 0.5 mg/kg of the standard drug, glibenclamide.
Group 4: This group was the alloxan-induced diabetic group, which was treated with 1.0 mg/kg of NtSt01 intraperitoneally.

Data set [4] has as its system alloxan-induced diabetic rats. Kind of data set: lipid profile (antilipidemic effect). The class given is in vivo. The following applies: NtSt01 1.0 mg/kg, glibenclamide 0.5 mg/kg; for LDL / S.Cholesterol: reference range 10–54; for S.Triglycerides: reference range 26–145; for HDL: reference range up to 50. How it is done:
Standard methods were used for the analysis of total cholesterol, serum triglycerides, low-density lipoprotein (LDL), and high-density lipoprotein (HDL). Briefly, […] of serum sample was added to […] solution of triglyceride. The mixture was incubated for 10 min at 37 °C and the absorbance was recorded at 546 nm. To monitor blood cholesterol, diagnostic kits were utilized following the specifications of the manufacturer. […] For HDL concentration determination, 200 µL of serum sample and 500 µL of HDL solution were combined, and the mixture was allowed to stand at room temperature for 5 min. Again, the mixture was mixed and subjected to further centrifugation for 5 min, followed by supernatant collection. Then, 50 µL of supernatant of HDL was added to 500 µL of solution of cholesterol; the mixture was incubated at 37 °C for 5 min. Then, at 546 nm, the sample absorbance was measured. Similarly, LDL was determined in all groups following the manufacturer’s specifications. LDL = Total cholesterol […] − Triglycerides/5(4)

For data set [5], the system named is rats. As to the kind of experiment: acute toxicity study in rats. It is filed as in vivo. The note with it: dose started at 200 and increased up to 2000 mg/kg body weight. How it is done: In experimental animals, acute toxicity studies were performed to determine the safe dose of our test compounds for in vivo studies.
Data set [6] concerns the target α-glucosidase (Saccharomyces cerevisiae, UniProt P53341). As to the kind of experiment: in vitro α-glucosidase inhibition. It is filed as biochemical. The protocol: The alpha-glucosidase inhibitory effects of our compounds were determined via a reported protocol. Sample dilutions (50 µL) and 100 µL of α-glucosidase solution (0.5 U/mL) were mixed. Then, 600 μL of phosphate buffer (0.1 M, pH 6.9) was added, and the mixture was incubated at 37 °C for 15 min. After this, 5 mM substrate (p-nitrophenyl α-D-glucopyranoside) solution (20 µL) in 0.1 M phosphate buffer (pH 6.9) was added and again incubated under the same conditions. Sodium carbonate was added to stop the reaction; at 405 nm, the absorbance was noted using a spectrophotometer. A mixture without α-glucosidase served as the blank, and a mixture without the test compound served as the control. The percent enzyme inhibition was calculated as:(1) % Alpha glucosidase inhibition=Control abs.−Sample abs./Control abs.×100

Data set [7] is described as follows: DPPH free radical scavenging assay. The protocol:
To evaluate the antioxidant potential of our compounds, the DPPH free radical scavenging assay developed by Brand William was used. The DPPH solution was made by dissolving 20 mg of DPPH in 100 mL of methanol, and its absorbance at 517 nm was adjusted to 0.75. Then, 2 mL of DPPH solution was added to 2 mL of sample dilutions ranging from 31.25 to 500 µg/mL, and the mixture was incubated at room temperature in the dark for 15 min. […] (3) % Inhibition=Control abs.−Sample abs./Control abs.×100

The test system of data set [8] is α-amylase. As to the kind of experiment: in vitro α-amylase inhibition. The class given is biochemical. How it is done:
The inhibitory activity of our compounds against alpha-amylase enzymes was determined as per the previously reported protocols. Test samples of 100 µL were mixed with an enzyme solution (200 µL) and 100 µL of phosphate buffer (pH 6.9, 2 mM). The mixture was then incubated at 25 °C for 20 min, followed by the addition of 100 µL of starch solution (1%). The same procedure was followed for positive controls, where phosphate buffer was added instead of […] (200 µL). After 5 min of incubation, 3,5-dinitrosalicylic acid reagent (500 µL) was added to the test samples and control group. The mixtures were incubated again for 10 min; at 580 nm, the absorbance was recorded using a spectrophotometer. The alpha-amylase percent inhibition was calculated as:(2) % Amylase inhibition=1−Test sample abs./Control abs.×100

Converted amounts (≈) assume the structure as drawn.

Sequence of α-glucosidase (P53341 whole entry): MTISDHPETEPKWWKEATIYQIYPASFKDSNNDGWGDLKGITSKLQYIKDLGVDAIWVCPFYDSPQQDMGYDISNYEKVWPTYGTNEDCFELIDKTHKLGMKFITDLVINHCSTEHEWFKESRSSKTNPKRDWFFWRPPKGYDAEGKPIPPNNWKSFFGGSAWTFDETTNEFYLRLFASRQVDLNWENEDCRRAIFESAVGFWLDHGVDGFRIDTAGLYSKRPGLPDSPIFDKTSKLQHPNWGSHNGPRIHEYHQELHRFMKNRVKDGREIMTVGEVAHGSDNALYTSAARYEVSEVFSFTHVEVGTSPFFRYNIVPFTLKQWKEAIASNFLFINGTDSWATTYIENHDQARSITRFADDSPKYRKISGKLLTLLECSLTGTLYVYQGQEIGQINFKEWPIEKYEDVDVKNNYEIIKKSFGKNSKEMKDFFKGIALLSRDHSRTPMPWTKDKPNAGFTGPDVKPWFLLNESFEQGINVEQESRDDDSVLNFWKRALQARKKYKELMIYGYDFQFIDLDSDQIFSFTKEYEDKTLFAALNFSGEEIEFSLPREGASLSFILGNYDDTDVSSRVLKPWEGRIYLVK

`COc1ccc(Cl)cc1C(=O)NCCc1ccc(S(=O)(=O)NC(=O)NC2CCCCC2)cc1` [Glibenclamide, glibenclamide, reference compound]: in data set [1], the S.Creatinine is listed as 0.43 ± 0.01 mg/dL, the “SGPT(ALT)” value was 37 ± 1.11 U/L, the S.ALK.Phosphatase was 125 ± 1.22 U/L and the S.bilurubin is 0.81 ± 0.03 mg/dL. In data set [2], this molecule gave a Heart weight of 0.90 ± 0.02 g, a Kidney weight of 0.99 ± 0.16 g, a Liver weight of 9.21 ± 0.66 g and a Pancreas weight of 0.84 ± 0.21 g. Also, the body weight in data set [3] (Day 1) is reported as 235 ± 1.36 g. In data set [3] (Day 7), this molecule gave a body weight of 236 ± 1.37 g. Besides, the body weight in data set [3] (Day 14) is 239 ± 0.67 g. The molecule further yielded a body weight in data set [3] (Day 21) of 244 ± 2.38 g. For the same molecule, the body weight in data set [3] (Day 28) is 249 ± 3.18 g. In data set [4], this molecule registered an LDL of 34.16 ± 2.66, a S.Cholesterol of 59.98 ± 0.99, a S.Triglycerides of 112 ± 0.99 and an HDL of 32.55 ± 2.35.
Take `CCC(C=CC(C)C1CCC2C3C=CC4=CC(OC(C)=O)CCC4(C)C3CCC12C)C(C)C` (stereo not drawn) [NtSt01, 3-β-Acetoxystigmasta-4,6,22-triene]: in data set [5], the acute toxicity observation entry is “safe and no morbidity, mortality or irritation was observed”. This molecule yielded a S.Creatinine in data set [1] of 0.6 ± 0.02 mg/dL. The “SGPT(ALT)” value in data set [1] came out at 32 ± 0.25 U/L. Also, the S.ALK.Phosphatase in data set [1] is 134 ± 2.33 U/L. Further, the S.bilurubin in data set [1] worked out at 0.72 ± 0.77 mg/dL. In addition, the results for the “potency relative to NtSt02 (from IC50 values)” value in data set [6] (α-glucosidase) and in data set [8] (α-amylase) were “three times more potent than NtSt02” and “eleven folds more potent than NtSt02”, respectively. Moreover, the values for the IC50 in data set [7] and in data set [8] (α-amylase) were 142.76 µg/mL (≈ 315 µM) and 4.17 µg/mL (≈ 9.21 µM), respectively. Moreover, the “Percent Inhibition (Mean ± SEM)” value in data set [7] (31.25 μg/mL) was 37.25 ± 2.66%; in data set [7] (62.50 μg/mL), 42.53 ± 0.69%; in data set [7] (125 μg/mL) it was 47.08 ± 2.41%; in data set [7] (250 μg/mL), 55.79 ± 0.92%; in data set [7] (500 μg/mL), 61.05 ± 2.05%; in data set [8] (31.25 μg/mL), 62.35 ± 1.78%. Further, the “Percent Inhibition (Mean ± SEM)” value is given as 67.63 ± 2.51% in data set [8] (62.50 μg/mL), 71.63 ± 0.92% in data set [8] (125 μg/mL), 75.52 ± 0.96% in data set [8] (250 μg/mL) and 80.03 ± 2.11% in data set [8] (500 μg/mL). Further, in data set [2], the Heart weight stood at 1.04 ± 0.13 g. The Kidney weight in data set [2] is listed as 1.01 ± 0.15 g. This molecule came in with a Liver weight in data set [2] of 9.83 ± 0.92 g. In data set [2], this molecule returned a Pancreas weight of 0.92 ± 0.12 g. In addition, the body weight in data set [3] (Day 1) was found to be 238 ± 0.33 g; in data set [3] (Day 7), 240 ± 0.49 g; in data set [3] (Day 14), 242 ± 1.04 g; in data set [3] (Day 21) it was 245 ± 1.11 g; in data set [3] (Day 28) it was 246 ± 0.11 g. Besides, the LDL in data set [4] amounted to 48.85 ± 1.08. Besides, in data set [4], the S.Cholesterol is on record as 77.45 ± 1.72. Moreover, the S.Triglycerides in data set [4] is 125 ± 3.65. The HDL in data set [4] was found to be 38.10 ± 1.64.
Turning to `CC(C)CCC[C@@H](C)[C@H]1CC[C@H]2[C@@H]3C=CC4=C[C@@H](OC(=O)c5ccccc5)CC[C@]4(C)[C@H]3CC[C@]12C` [NtSt02, 4,6-cholestadien-3beta-ol, benzoate], the IC50 in data set [7] came to 223.43 µg/mL (≈ 457 µM); in data set [8] (α-amylase), 46.73 µg/mL (≈ 95.6 µM). Also, the “Percent Inhibition (Mean ± SEM)” value in data set [7] (31.25 μg/mL) turned out to be 28.52 ± 2.63%; in data set [7] (62.50 μg/mL), 33.08 ± 1.17%; in data set [7] (125 μg/mL), 42.99 ± 2.70%; in data set [7] (250 μg/mL), 52.01 ± 1.07%; in data set [7] (500 μg/mL), 59.12 ± 1.96%; in data set [8] (31.25 μg/mL), 46.84 ± 0.67%. The “Percent Inhibition (Mean ± SEM)” value is 53.10 ± 2.05% in data set [8] (62.50 μg/mL), 60.04 ± 0.86% in data set [8] (125 μg/mL), 64.32 ± 1.85% in data set [8] (250 μg/mL) and 74.99 ± 1.53% in data set [8] (500 μg/mL).
Take `C[C@H]1O[C@H](O[C@H]2[C@H](O)[C@@H](O)[C@@H](O[C@H]3[C@H](O)[C@@H](O)C(O)O[C@@H]3CO)O[C@@H]2CO)[C@H](O)[C@@H](O)[C@@H]1N[C@H]1C=C(CO)[C@@H](O)[C@H](O)[C@H]1O` (stereo partly drawn) [acarbose, reference compound]: the “Percent Inhibition (Mean ± SEM)” value in data set [6] is given as 92.65 ± 0.55%; in data set [8] (500 μg/mL), 91.01 ± 1.36%.

As usually defined, the IC50 is the concentration that inhibits the measured activity by half. Read a high IC50 as weaker potency.
